Laboratory results published in patent US11273142B2, “Treatment for tumors driven by metabolic dysfunction” (SynDevRx, Inc., priority 2016, dated 2022).
Read-outs that look alike come from different tables or passages of the source.

Assays:
[1] = in combination with paclitaxel; dosed three times per week; cited from earlier work
[2] = cited from earlier work
[3] = Adipose tissue mass in mice bearing B16F10 melanoma; format: in vivo, C57BL/6 male mice; conditions: 2 mg/kg
Procedure: (§1) C57BL/6 male mice were ad libitum fed TD.06414 a high fat diet (HFD) composed of 60% Kcal from fat (DIO) for 12-14 weeks, until average body weight of the obese mice was >40 g. Age-matched C57Bl/6 male mice were maintained on a normal rodent diet (10% fat, low-fat diet, LFD) for 12-14 weeks. The study was initiated by injecting 2×10^5 B16F10 melanoma cells into the flank of both lean and obese animals.
(§2) Treatment was via subcutaneous, intra-scapular injection at 5 ml/kg every four days (compound 1) or every 2 days (compound 4) over a 17 day period at the doses and on the schedule shown in Table 2.

[4] = system: B16F10 melanoma; assay: Metastatic lung lesions in B16F10 melanoma/DIO mice; format: in vivo, C57BL/6 male mice; conditions: Obese Mice; 2 mg/kg
Procedure: as §1
as §2, with “The mice were treated with 5% mannitol/water (vehicle control), Compound 1 or Compound 4 once tumors had reached >100 mm^3. Treatment” for “Treatment”

[5] = system: B16F10 melanoma; assay: B16F10 melanoma tumor growth in obese (DIO) and lean mice; format: in vivo, C57BL/6 male mice; conditions: 2 mg/kg SC Q2D
Source text: The study would compare weight changes in both obese and lean animal groups; measure biologic changes in hematology parameters; and compare conjugate molecules of the present disclosure against related small molecules for efficacy.
as §1
as §2, with “The mice were treated with 5% mannitol/water (vehicle control), Compound 1 or Compound 4 once tumors had reached >100 mm^3. Treatment” for “Treatment”

[6] = Body weight of B16F10 tumor-bearing obese and lean mice; format: in vivo, C57BL/6 male mice; conditions: 2 mg/kg SC Q2D
Procedure: as §1
as §2, with “The mice were treated with 5% mannitol/water (vehicle control), Compound 1 or Compound 4 once tumors had reached >100 mm^3. Treatment” for “Treatment”

[7] = every fourth day schedule; limited by confusion and insomnia; cited from earlier work
[8] = SD rats; 5 mg/kg/day (Kim et al.); cited from earlier work
[9] = NOAEL in dog; conditions: in vivo, after 0.5 mg/kg COMPOUND 1
[10] = NOAEL in rat; conditions: in vivo, after 3 mg/kg COMPOUND 1
[11] = system: CYP3A 4 & 5; assay: CYP3A4/5 substrate status; format: in vitro ADME

CO[C@@H]1[C@H](OC(=O)NC(=O)CCl)CC[C@]2(CO2)[C@H]1[C@@]1(C)O[C@@H]1CC=C(C)C [TNP-470, chloroacetylcarbamoylfumagillol]
MTD [1]: 60 mg/m2 | obesity prevention ([2]; mice, 15 or 20 mg/kg every other day (Brakenhielm)): prevention of obesity | body weight effect ([2]; ob/ob mice, daily doses 2.5 mg/kg to 10 mg/kg (Rupnick et al.)): weight loss

COC1C(OC(=O)/C=C/c2ccc(OCCN(C)C)cc2)CC[C@]2(CO2)C1[C@@]1(C)O[C@@H]1CC=C(C)C (stereo partly drawn) [Compound 4]
Tissue Weight, Epididymal Fat ([3]; Lean Mice): 0.134 g | Tissue Weight, Inguinal Fat ([3]; Lean Mice): 0.208 g | Tissue Weight, Retroperitoneal Fat ([3]; Lean Mice): 0.029 g | Tissue Weight, Epididymal Fat ([3]; Obese Mice): 0.424 g | Tissue Weight, Inguinal Fat ([3]; Obese Mice): 0.416 g | Tissue Weight, Retroperitoneal Fat ([3]; Obese Mice): 0.142 g | number of metastatic lung lesions, mean +/- SEM [4]: 2.4+/−0.8 lesions/mouse | effect on tumor growth ([5]; lean mice): no effect on tumor growth | inhibition of growth of tumors ([5]; obese mice): 28% | effect on body weight ([6]; lean mice): no effect on body weight | change in body weight ([6]; obese mice): −7.9% | MTD [7]: 15 mg/m2/day | body weight effect [8]: weight loss | body weight effect ([2]; C57BL/6J mice, 5 mg/kg/day (Kim et al.)): weight loss | body weight effect ([2]; DIO mice, dosed at 1 mg/kg (Hughes et al.)): efficacious in eliciting weight loss

CO[C@@H]1[C@H](OC(=O)/C=C/C=C/C=C/C=C/C(=O)O)CC[C@]2(CO2)[C@H]1[C@@]1(C)O[C@@H]1CC=C(C)C [fumagillin]
body weight effect ([2]; C57BL/6 mice, oral 1 mg/kg daily (Lijnen et al.)): weight loss

COC1C(OC(=O)N[C@H]2CC[C@H](N)CC2)CC[C@]2(CO2)C1[C@@]1(C)O[C@@H]1CC=C(C)C (stereo partly drawn) [Compound 5]
AUC [9]: 20.7 ng·h/mL | Cmax [9]: 0.4 ng/mL | AUC [10]: 23.3 ng·h/mL | Cmax [10]: 1.5 ng/mL | CYP3A 4 & 5 substrate [11]: substrate
